Values joined by “and” are separate entries in the source; they are usually repeats but may differ in a detail not shown here. Identical values can stand only once.
What was measured:
[1] = target: T1, KLHDC2^SBD (Homo sapiens, UniProt Q9Y2U9); assay: TR-FRET assay, competition with di-Gly degron peptide binding to KLHDC2^SBD; design: KLHDC2^SBD (15-361) and its Avi-tagged counterpart were expressed in E. coli Rosetta2 cells; 6XHis-MBP (N, cleaved yes); made in house; host or cells: E. coli Rosetta2; conditions: for IC50: inhibition of KLHDC2^SBD binding to a di-Gly degron peptide, read-out: TR-FRET IC50
T1 sequence (Q9Y2U9 15-361): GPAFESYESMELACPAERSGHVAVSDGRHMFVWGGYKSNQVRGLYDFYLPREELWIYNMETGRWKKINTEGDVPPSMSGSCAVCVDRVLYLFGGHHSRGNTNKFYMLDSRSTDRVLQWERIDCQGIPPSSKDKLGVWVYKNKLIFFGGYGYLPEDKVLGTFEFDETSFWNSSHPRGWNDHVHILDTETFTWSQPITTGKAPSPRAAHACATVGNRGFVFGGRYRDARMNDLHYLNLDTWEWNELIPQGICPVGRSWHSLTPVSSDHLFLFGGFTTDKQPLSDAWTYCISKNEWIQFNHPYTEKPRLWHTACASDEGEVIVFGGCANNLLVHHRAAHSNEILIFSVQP
Protocol: TR-FRET assays were carried out in black 384-well microtiter plates at a final volume of 20 μL per well. An assay cocktail was prepared as a mixture of 50 nM Biotin-KLHDC2 SBD, 20 nM AlexaFluor488-RIC8B peptide, 2.5 nM Tb-Streptavidin (ThermoFisher) in assay buffer (25 mM HEPES, 100 mM NaCl, 0.1% Triton X-100, 0.5 mM DTT, pH 7.5). The assay cocktail was incubated for thirty-minutes at room temperature and 20 μl distributed to assay plates. Molecules were distributed to the plates at the indicated concentration and the assay mixture was incubated for 1 h at room temperature prior to measuring the TR-FRET signal with a PHERAstar FS plate reader (BMG Labtech) equipped with modules for excitation at 337 nm and emissions at 490 and 520 nm. The integration start was set to 100 µs and the integration time to 200 µs. The number of flashes was fixed at 100. The ratio of 520/490 was used as TR-FRET signal in calculations. Assay endpoints were normalized to 100% (buffer only) and used for curve fitting in Prism.

[2] = target: T1, KLHDC2^SBD; assay: Surface plasmon resonance binding to KLHDC2; design: KLHDC2^SBD (15-361) and its Avi-tagged counterpart were expressed in E. coli Rosetta2 cells; 6XHis-MBP (N, cleaved yes); made in house; host or cells: E. coli Rosetta2; conditions: for SPR Rmax / SPR dissociation constant kd: n=1; for Kd: read-out: SPR Kd; for SPR Response: FigS2d
Protocol: Surface plasmon resonance (SPR) was utilized to determine kinetic parameters and binding affinity of KLHDC2 substrates using a PioneerFE (Sartorius). Experiments were carried out in 20 mM Tris, 200 mM NaCl, 1 mM TCEP, 0.01% Brij35, and 1% DMSO at pH 7.4 as a running buffer with a 100 µL/min flow rate at 20 °C.
The 10xHis-KLHDC2 was immobilized onto a Ni-NTA-coated biosensor chip (HisCap). The chip surface was conditioned using 10 mM HCl, 50 mM NaOH, and 0.1% SDS (50 µL at 100 µL/min) twice, followed by a 100 mM Tris buffer wash (100 µL at 100 µL/min). The surface was then activated using an injection of 0.5 M EDTA (125 µL at 25 µL/min) followed by an injection of 5 mM NiCl2 (125 µL at 25 µL/min). […] Channel 2 was treated identically to channel 3 except for protein loading to be used as a reference channel. […] 100% of the loop was injected with a 300 s dissociation time. All samples were run in triplicate. Data was analyzed using Qdat software and fit to a simple 1-site model.
The SPR experiments were performed to determine the binding affinities (KD) of KLHDC2-SJ46411 and KLHDC2-SJ46418 complexes. All the experiments were performed using a Biacore 1S+ instrument. […] The running buffer consisted of 20 mM Tris pH 7.5, 200 mM NaCl, 1 mM TCEP, 0.01% Brij35, and 4% DMSO. […] In brief, before the immobilization, the sensor chip surface was conditioned by injecting a mixture of (3:1 v/v) 8 M guanidine hydrochloride and 1 M NaOH at a flow rate of 5 μL/min for 2 min for two times. Then, running buffer was injected at a 30 μl/min flow rate for 1 min 3 times. Next, the Biotin CAPture reagent was injected at a flow rate of 2 μl/min for 5 min. Then, biotinylated KLHDC2 was only injected onto the active channel (channel 2).
Sample preparation was carried out precisely the same as SJ46411. All experiments were performed using a multi-cycle analysis method with a 30 μl/min flow rate, 120 S association, and 240 s dissociation time. All data were reference subtracted and corrected for DMSO mismatch. The sensorgrams were analyzed using Biacore insight evaluation software, and KD was determined using the 1:1 steady-state affinity fitting. Finally, all the analyzed data was replotted using GraphPad Prizm 10 software.

Structure (SMILES): O=C(O)CNC(=O)Cc1csc(-c2ccccc2F)n1 [SJ6145]
- % Inhibition, normalized TR-FRET dose response ([1]; Log Concentration (uM 2.8348)): 0%
- % Inhibition, normalized TR-FRET dose response ([1]; Log Concentration (uM 3.13583)): 5.022%
- % Inhibition, normalized TR-FRET dose response ([1]; Log Concentration (uM 4.64098)): 41.3917%
- % Inhibition, normalized TR-FRET dose response ([1]; Log Concentration (uM 4.94201)): 60.6887%
- % Inhibition, normalized TR-FRET dose response ([1]; Log Concentration (uM 5.24304)): 71.5686%
- % Inhibition, normalized TR-FRET dose response ([1]; Log Concentration (uM 5.54407)): 79.1487%
- IC50 [1]: 42 µM
- SPR Rmax [2]: 8.25 +/- 0.01
- SPR dissociation constant kd [2]: 4.19 s⁻¹
- Kd [2]: 16.9 µM

Structure (SMILES): COCOc1ccc(-c2nc(CC(=O)NCC(=O)O)cs2)c(Cl)c1 [SJ10278]
- % Inhibition, normalized TR-FRET dose response ([1]; Log Concentration 2, Rep1): 8.293%
- % Inhibition, normalized TR-FRET dose response ([1]; Log Concentration 2, Rep2): 0%
- % Inhibition, normalized TR-FRET dose response ([1]; Log Concentration 2, Rep3): 0%
- % Inhibition, normalized TR-FRET dose response ([1]; Log Concentration 3.39794, Rep1): 11.5657%
- % Inhibition, normalized TR-FRET dose response ([1]; Log Concentration 3.39794, Rep2): 0%
- % Inhibition, normalized TR-FRET dose response ([1]; Log Concentration 3.39794, Rep3): 5.531%
- % Inhibition, normalized TR-FRET dose response ([1]; Log Concentration 3.87506, Rep1): 26.5428%
- % Inhibition, normalized TR-FRET dose response ([1]; Log Concentration 3.87506, Rep2): 8.417%
- % Inhibition, normalized TR-FRET dose response ([1]; Log Concentration 3.87506, Rep3): 8.069%
- % Inhibition, normalized TR-FRET dose response ([1]; Log Concentration 4.35218, Rep1): 43.4059%
- % Inhibition, normalized TR-FRET dose response ([1]; Log Concentration 4.35218, Rep2): 37.2745%
- % Inhibition, normalized TR-FRET dose response ([1]; Log Concentration 4.35218, Rep3): 43.973%
- % Inhibition, normalized TR-FRET dose response ([1]; Log Concentration 4.81291, Rep1): 67.7021%
- % Inhibition, normalized TR-FRET dose response ([1]; Log Concentration 4.81291, Rep2): 64.6478%
- % Inhibition, normalized TR-FRET dose response ([1]; Log Concentration 4.81291, Rep3): 77.6282%
- IC50 [1]: 24.1 µM
- SPR Rmax [2]: 11.33 +/- 0.02
- SPR dissociation constant kd [2]: 2.03 s⁻¹
- Kd [2]: 8.8 µM and 8.79 µM

Structure (SMILES): O=C(O)CNC(=O)Cc1csc(-c2ccc3ccccc3c2)n1 [SJ46411]
- % Inhibition, normalized TR-FRET dose response ([1]; Log Concentration 2.39794, Rep1-Rep3): 6.354% and 5.4752% and 4.71%
- % Inhibition, normalized TR-FRET dose response ([1]; Log Concentration 2.64098, Rep1-Rep3): 7.948% and 6.2789% and 8.198%
- % Inhibition, normalized TR-FRET dose response ([1]; Log Concentration 3.273, Rep1-Rep3): 31.9514% and 32.2878% and 31.935%
- % Inhibition, normalized TR-FRET dose response ([1]; Log Concentration 3.87506, Rep1-Rep3): 66.95% and 63.4771% and 63.8138%
- % Inhibition, normalized TR-FRET dose response ([1]; Log Concentration 4.39794, Rep1-Rep3): 94.0253% and 93.427% and 93.3896%
- % Inhibition, normalized TR-FRET dose response ([1]; Log Concentration 4.69897, Rep1-Rep3): 96.203% and 95.4411% and 96.0366%
- % Inhibition, normalized TR-FRET dose response ([1]; Log Concentration 4.94201, Rep1-Rep3): 96.4266% and 96.3416% and 96.2278%
- IC50 [1]: 3.9 µM
- SPR Response ([2]; analyte 0.146484 μM): 4.647 RU
- SPR Response ([2]; analyte 0.292969 μM): 7.784 RU
- SPR Response ([2]; analyte 0.585938 μM): 11.5982 RU
- SPR Response ([2]; analyte 2.34375 μM): 17.8875 RU
- SPR Response ([2]; analyte 4.6875 μM): 19.5092 RU
- SPR Response ([2]; analyte 9.375 μM): 20.5795 RU
- SPR Rmax [2]: 24.50 +/- 0.30
- Kd [2]: 0.5 µM and 0.526 µM

From publication PMC11470957, “Principles of paralog-specific targeted protein degradation engaging the C-degron E3 KLHDC2” (Nature Communications, 2024)
